Test results published in US9399133B2, “Non-invasive automated electrical control systems and methods for monitoring animal conditions” (Rhode Island Board of Education, State of Rhode Island and …, priority 2012, dated 2016).

Tested on: status epilepticus (SE) induced by lithium-pilocarpine (LP)
Assay: Status epilepticus induced by lithium-pilocarpine in rats receiving TFS, alone and combined with subeffective doses of diazepam
Assay type: in vivo
Description: This study was designed to evaluate status epilepticus (SE) induced by lithium-pilocarpine (LP) in rats receiving TFS, alone and combined with subeffective doses of diazepam, an antiepileptic drug that belongs to the group of benzodiazepines. Diazepam is currently considered one of the drugs of choice to stop SE.

[1] = LP+TFS+DZP group compared with LP, LP+DZP and LP+TFS groups, p<0.001

CN1C(=O)CN=C(c2ccccc2)c2cc(Cl)ccc21 [diazepam]
latency to mild generalized seizure [1]: significantly increased | latency to the establishment of the SE [1]: significantly increased | latency to the first forelimb clonus [1]: significantly increased | total protection against LP-induced seizures and SE, animals (subeffective dose of diazepam combined with TFS (LP+TFS+DZP group), p<0.0001 vs LP, p<0.003 vs LP+DZP): 62% | latency and incidence of LP-induced behavioral alterations (subeffective doses of diazepam administered prior to the pilocarpine, without TFS, in comparison to the LP group): Non-significant changes | rats presenting seizures and SE (subeffective doses of diazepam prior to pilocarpine, without TFS (LP+DZP group)): All rats presented seizures and SE
